The nature of data set [1]: MTT cell viability / IC50 in growth media. The conditions noted are these: human, HepG2 cells, 10 μM; for viability at 4 day, 10 µM: day 4; for viability at 2 days, 10 µM: treatment for 2 days. The format is cell-based, human. As to the method: (§1) The cytotoxic effects of the synthesized drugs on the HepG2 cells were tested by MTT (Thiazolyl Blue Tetrazolium Bromide) method. HepG2 cells were seeded 2×10^4 cells per well in 96-well plate in 200 μL growth media. […] After the incubation period, 5 mg/ml MTT (M2128, Sigma-Aldrich) solution in PBS (10 μL) was added to each well. After 1 hr, the MTT solution and all media were removed from the wells. 100 μl of DMSO was added and mixed to dissolve the formazan crystals. Cell viability was analysed by measuring the absorbance of the dissolved formazan in a microplate reader at a wavelength of 570 nm with microplate reader (Hidex Sense Beta Plus).
(§2) HepG2 cells were maintained and used with RPMI 1640 (R2405, Sigma-Aldrich) supplemented with 10% fetal bovine serum (F7524, Sigma-Aldrich), 1% P/S (P4333, Sigma-Aldrich). 20,000 cells per well of HepG2 cells were seeded into a 96-well plate and triplicated for MTT assay and LDH assay. Cell viability was measured by MTT assay (M6494, ThermoFisher) and cytotoxicity was measured by LDH assay kit (ab65393, abcam) by following manufacturer's instructions. Optical density (O.D) was numerated using a microplate reader (Hidex Sense Meta Plus).

The test system of data set [2] is HepG2 cells. Briefly: MTT cell viability / IC50 in growth media. The format is cell-based, human. The conditions noted are these: 30 μM to 30 nM; for IC50: Homo sapiens, 48 h, HepG2, treatment for 2 days. The method, then:
as §1, §2

The next data set concerns PARP. The data set is described as follows: Western blot, cleaved PARP. The conditions noted are these: 10 μM, 2 days. The format is cell-based, human. The method, then: (§3) HepG2 cells were seeded into a 6-well plate at 400,000 cells per well. After treatment with 10 μM of JNK-IN-5A and its derivatives for two days, lysates were harvested with CelLytic M (C2978, Sigma-Aldrich). 20 μg lysate was prepared with 2× Laemmli Sample Buffer (1610737, Biorad). SDS PAGE were performed using Mini-PROTEAN® TGX™ Precast Gels (Bio-Rad) and transferred using Trans-Blot® Turbo™ Transfer System (Bio-Rad). Primary antibody, PARP (95425, Cell signalling), Caspase 3 (ab32042, abcam), Bcl-2 (ab182858), STAT1 (HPA000982, Merk), PKL (06653, Sigma), PKM (4053S, Cell signalling), GAPDH (ab8245, abcam), P53 (ab32389, abcam), p21 (ab109199, abcam), p-S349 p62 (ab211324, abcam), p62 (ab109012, abcam), c-Myc (ab32072, abcam), GPX4 (ab125066, abcam), MMP9 (MA5-32705, Invitrogen), β-actin (ab8227, abcam), and α-tubulin (ab7291, abcam) were blotted overnight and Goat Anti-Rabbit HRP (ab205718) and goat anti-mouse IgG-HRP (sc2005, Santa Cruz Biotechnology, Inc.) were blotted for secondary antibody for one hour. ImageQuantTMLAS 500 (29-0050-63, GE) was used to detect protein bands.

The subject of another data set is Caspase 3. The data set is described as follows: Western blot, active caspase 3. The conditions noted are these: 10 μM, 2 days. The format is cell-based, human. The method, then: as §3
The test system of a further data set is JNK1/2/3. Briefly: Western blot, JNK1/2/3 P54 and p46 isoforms. The format is cell-based, human. The conditions noted are these: 10 μM, 2 days. The method, then:
HepG2 cells were seeded into a 6-well plate at 400,000 cells per well. After treatment with 10 μM of JNK-IN-5A and its derivatives for two days, lysates were harvested with CelLytic M (C2978, Sigma-Aldrich). […] SDS PAGE were performed using Mini-PROTEAN® TGX™ Precast Gels (Bio-Rad) and transferred using Trans-Blot® Turbo™ Transfer System (Bio-Rad). […] ImageQuantTMLAS 500 (29-0050-63, GE) was used to detect protein bands.
(Immunoblotting shows a protein as a band on a membrane.)

Another data set concerns c-Myc. Briefly: Nuclear protein western blot, c-Myc. The format is cell-based, human. The conditions noted are these: 10 μM, 2 days. The method, then:
as §3

For the next data set, the system named is p21. Briefly: Nuclear protein western blot, p21. The format is cell-based, human. The settings on record: 10 μM, 2 days. The method, then:
as §3

The next data set concerns GPX4. The data set is described as follows: Western blot, GPX4. The format is cell-based, human. The conditions noted are these: compared to the control. The method, then:
as §3

The test system of data set [3] is HepG2 cells. The data set is described as follows: FACs analysis with PI staining (cell cycle). The format is cell-based, human. The conditions noted are these: for cell cycle distribution / arrest: PI FACS. As to the method:
400,000 HepG2 cells were seeded in a 6-well plated and treated with 10 μM of the compounds for 2 days. Cells were fixed with 70% ethanol and stained with 50 μg/ml PI. Prepared cells were analysed using BD FACS Canto II Flow Cytometry system at PE-A channel 10,000 cells per group. The data was histogram plotted with BD FACSDiva 9.0.

Data set [4] relates to HepG2 cells. Briefly: Mitochondrial membrane potential assay (TMRE). The conditions noted are these: 10 μM, one day. The format is cell-based, human. As to the method:
(§4) HepG2 cells were seeded into a 6-well plate at 400,000 cells per well. After treatment with the compounds at desired concentration and time, TMRE (ab113852, abcam), Autophagy (ab139484, abcam), ROS (ab113851, abcam), and Lipid peroxidation (ab243377, abcam) assay were performed according to manufacturer's instructions. Fluorescence images were taken using ZOE™ Fluorescent Cell Imager (Biorad) and ROI of fluorescence intensity was measured and calculated by Image J. For microplate reader florescence assay, 40,000 of HepG2 cells were seeded into a 96-well plate and triplicated. GFP (Ex480 nm, Em530 nm) and RFP (Ex549 nm, Em574 nm) were measured using a microplate reader (Hidex Sense Meta Plus).

Data set [5] concerns HepG2 cells. Briefly: Autophagy assay. The format is cell-based, human. The conditions noted are these: 10 μM, one day. The method, then:
as §4

For data set [6], the system named is HepG2 cells. The data set is described as follows: Invasion assay (transwell). The format is cell-based, human. The method, then: The effects of the treatment with the compounds on the invasion ability of HepG2 and Huh7 cells were determined by 8 μm pores transwell chamber (Corning™ 3464, USA).
(§5) Transwell membrane was coated with 100 μl collagen (Sigma C3867, USA) diluted with PBS to a concentration of 1 mg/ml. After overnight incubation at 4° C., the collagen solution was discarded and the membrane was washed with PBS. 100,000 cells in 200 μl serum free media together with the tested compounds were added into the upper well and 600 μl of 10% FBS supplemented growth media was added to the lower well as an invasive attractant in a 24-well plate. Cells were incubated at 37° C. in a CO2 incubator for one day. The cells were fixed with 3.7% formaldehyde for 30 minutes at room temperature and washed with PBS twice. The cells were stained with 1% crystal violet in PBS for 20 minutes and residual cells in inner membrane were swabbed gently with a cotton swab. Invaded cells located at the outer membrane were imaged by ZOE Fluorescent Cell Imager (Bio-Rad, USA) and counted by image. For wound healing assay, 100,000 cells per well were seeded into 24-well plates and grown until 95-100% confluent. Linear wound was created by using a 200 μl pipette tip. Image was recorded at the time point of day 0 until control group wound closure with 1 μM of compounds by ZOE Fluorescent Cell Imager (Bio-Rad, USA). Wound areas were measured using ImageJ software.

Data set [7] has as its system HepG2 cells. Briefly: Wound healing assay. The format is cell-based. The conditions noted are these: Homo sapiens, HepG2, 96 h, day 4, untreated 100% wound closure, read-out: wound healing delayed by. As to the method:
as §5

What is called viability is the share of living cells, or the viability signal relative to a control. Low values mean more harm to the cells, high ones less harm to the cells. For orientation: IC50 means the concentration that gives 50% inhibition. In [1], `CNC(=O)c1cc(Oc2ccc(NC(=O)Nc3ccc(Cl)c(C(F)(F)F)c3)c(F)c2)ccn1` [Regorafenib, regorafenib, reference compound] came in with a viability at 4 day, 10 µM of 13.4% and a viability at 2 days, 10 µM of 41.1%. Also, in the data set on HepG2 cells [2], the “dose dependence of cell viability” value is “dose-dependent decrease in cell viability” and the IC50 came out at 5.91 µM. In addition, in the data set on PARP, the “increase in cleaved PARP vs untreated control” value worked out at 16 times. The “active caspase 3 levels” value in the data set on Caspase 3 is recorded as 3.61 times. Further, the “JNK1/2/3 p46 expression” value in the data set on JNK1/2/3 turned out to be 0.65 times. For the same compound, in the data set on c-Myc, the “nuclear c-Myc expression” value is listed as “decreased”. Besides, in the data set with p21, the p21 nuclear localization entry was “not”. Also, in the data set with GPX4, the GPX4 expression levels result was “significantly higher”. Also, the “cell cycle distribution / arrest” value in the data set on HepG2 cells [3] is on record as “did not alter the cell cycle distribution significantly”. Also, in the data set on HepG2 cells [3] (PI FACs, 10 μM, 2 days), the “Cell population G0/G1” value stood at 70.5, the “Cell population G2/M” value is reported as 14.9 and the “Cell population S” value amounted to 9.7. In addition, the mitochondrial membrane potential entry in the data set with HepG2 cells [4] is on record as “decrease”. The “autophagy GFP signals” value in the data set with HepG2 cells [5] is “did not induce autophagy”. Moreover, the inhibition at 1 µM with HepG2 cells [6] (Homo sapiens, HepG2, 24 hr, read-out: invasiveness reduced by) came to 21%. For the same compound, the inhibition at 1 µM with HepG2 cells [7] was found to be 44.8%.
`CNC(=O)c1cc(Oc2ccc(NC(=O)Nc3ccc(Cl)c(C(F)(F)F)c3)cc2)ccn1` [Sorafenib, sorafenib, reference compound]: in [1], the viability at 4 day, 10 µM was 19.2% and the viability at 2 days, 10 µM stood at 51%. In the data set with HepG2 cells [2], the “dose dependence of cell viability” value is listed as “dose-dependent decrease in cell viability” and half-maximal inhibition (IC50) was put at 8.64 µM. Further, in the data set with PARP, the “increase in cleaved PARP vs untreated control” value is 10 times. In addition, the “active caspase 3 levels” value with Caspase 3 amounted to 4.35 times. For the same compound, the “JNK1/2/3 p46 expression” value in the data set with JNK1/2/3 was found to be 0.81 times. Besides, in the data set with c-Myc, the “nuclear c-Myc expression” value was “decreased”. For the same compound, the p21 nuclear localization result in the data set with p21 was “not”. Further, the GPX4 expression levels entry in the data set with GPX4 was “significantly higher”. Also, the “cell cycle distribution / arrest” value in the data set with HepG2 cells [3] is “did not alter the cell cycle distribution significantly”. In addition, the “Cell population S” value in the data set with HepG2 cells [3] (PI FACs, 10 μM, 2 days) came to 10.1. For the same compound, in the data set on HepG2 cells [4], the mitochondrial membrane potential result was “decrease”. Also, in the data set with HepG2 cells [5], the “autophagy GFP signals” value was “did not induce autophagy”. Besides, the “invasiveness reduced by” value with HepG2 cells [6] (1 μM, 24 hr) is 28.7%±2.9. In the data set with HepG2 cells [7], the inhibition at 1 µM is 35%.

The values are drawn from patent US20260234159A1, “SMALL MOLECULE TREATMENT OF FATTY LIVER DISEASE AND HCC” (SCANDIEDGE THERAPEUTICS AB, priority 2023, published 2026).
